Assays:
Assay type in all cases: biochemical
MKK1 = MKK1 (Homo sapiens, UniProt Q02750); experiment: Kinase profiling MKK1; details: 100 micromolar inhibitor concentration, 100 is no change
Excerpt: (§1) Any value less that 25 is considered to be highly significant inhibition.

JNK1 = JNK1 (Homo sapiens, UniProt P45983); experiment: Kinase profiling JNK1; details: 100 micromolar inhibitor concentration, 100 is no change
Excerpt: as §1

JNK3 = JNK3 (Homo sapiens, UniProt P53779); experiment: Kinase profiling JNK3; details: 100 micromolar inhibitor concentration, 100 is no change
Excerpt: as §1

p38a MAPK = p38a MAPK (Homo sapiens, UniProt Q16539); experiment: Kinase profiling p38a MAPK; details: 100 micromolar inhibitor concentration, 100 is no change
Excerpt: as §1

p38d MAPK = target: T1, p38d MAPK (Homo sapiens, UniProt O15264); experiment: Kinase profiling p38d MAPK; details: 100 micromolar inhibitor concentration, 100 is no change
T1 sequence (O15264 1-365): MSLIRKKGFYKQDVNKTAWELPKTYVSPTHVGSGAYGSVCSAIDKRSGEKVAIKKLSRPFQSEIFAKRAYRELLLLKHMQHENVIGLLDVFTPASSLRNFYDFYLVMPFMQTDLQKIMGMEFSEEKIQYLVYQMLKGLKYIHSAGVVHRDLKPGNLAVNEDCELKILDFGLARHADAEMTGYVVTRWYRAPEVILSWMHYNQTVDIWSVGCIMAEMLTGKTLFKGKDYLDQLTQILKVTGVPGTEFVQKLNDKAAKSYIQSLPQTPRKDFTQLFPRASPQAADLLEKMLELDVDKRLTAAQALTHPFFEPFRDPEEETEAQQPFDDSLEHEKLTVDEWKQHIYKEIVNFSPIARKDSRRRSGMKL
Excerpt: as §1

RSK2 = RSK2 (Homo sapiens, UniProt P51812); experiment: Kinase profiling RSK2; details: 100 micromolar inhibitor concentration, 100 is no change
Excerpt: as §1

PKBb = PKBb (Homo sapiens, UniProt P31751); experiment: Kinase profiling PKBb; details: for residual kinase activity, PKBb: 100 micromolar inhibitor concentration, 100 is no change
Excerpt: as §1

SGK1 = target: T2, SGK1 (Homo sapiens, UniProt O00141); experiment: Kinase profiling SGK1; details: 100 micromolar inhibitor concentration, 100 is no change
T2 sequence (O00141 1-431): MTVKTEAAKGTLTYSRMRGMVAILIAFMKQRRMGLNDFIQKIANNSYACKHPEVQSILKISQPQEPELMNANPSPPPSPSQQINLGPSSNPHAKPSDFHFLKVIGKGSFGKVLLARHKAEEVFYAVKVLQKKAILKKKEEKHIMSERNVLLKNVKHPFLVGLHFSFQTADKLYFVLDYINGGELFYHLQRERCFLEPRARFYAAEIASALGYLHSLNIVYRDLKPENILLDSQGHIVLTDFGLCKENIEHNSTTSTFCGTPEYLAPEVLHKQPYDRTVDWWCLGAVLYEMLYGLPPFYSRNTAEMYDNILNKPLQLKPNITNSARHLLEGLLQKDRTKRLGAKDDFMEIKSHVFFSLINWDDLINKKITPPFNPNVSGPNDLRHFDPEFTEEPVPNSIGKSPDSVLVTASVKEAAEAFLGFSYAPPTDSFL
Excerpt: as §1

STK33 = STK33 (Homo sapiens, UniProt Q9BYT3); experiment: Kinase profiling STK33; details: 100 micromolar inhibitor concentration, 100 is no change
Excerpt: as §1

SmMLCK = SmMLCK (Homo sapiens, UniProt Q15746); experiment: Kinase profiling SmMLCK; details: 100 micromolar inhibitor concentration, 100 is no change
MST2 = target: T3, MST2 (Homo sapiens, UniProt Q13188); experiment: Kinase profiling MST2; details: 100 micromolar inhibitor concentration, 100 is no change
T3 sequence (Q13188 1-491): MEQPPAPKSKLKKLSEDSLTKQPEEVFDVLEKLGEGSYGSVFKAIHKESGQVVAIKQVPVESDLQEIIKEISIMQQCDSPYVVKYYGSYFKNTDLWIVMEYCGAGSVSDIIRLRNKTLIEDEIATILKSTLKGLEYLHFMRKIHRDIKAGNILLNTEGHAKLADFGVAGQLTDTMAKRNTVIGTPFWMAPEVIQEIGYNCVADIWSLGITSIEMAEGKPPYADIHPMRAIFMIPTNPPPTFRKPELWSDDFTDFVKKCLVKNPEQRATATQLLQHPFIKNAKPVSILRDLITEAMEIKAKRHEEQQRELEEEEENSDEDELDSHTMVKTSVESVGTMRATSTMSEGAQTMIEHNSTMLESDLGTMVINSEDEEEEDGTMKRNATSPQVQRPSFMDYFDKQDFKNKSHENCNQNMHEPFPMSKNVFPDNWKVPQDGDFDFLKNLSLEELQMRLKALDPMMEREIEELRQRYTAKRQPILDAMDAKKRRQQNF
Excerpt: as §1

RIPK2 = RIPK2 (Homo sapiens, UniProt O43353); experiment: Kinase profiling RIPK2; details: 100 micromolar inhibitor concentration, 100 is no change
Excerpt: as §1

TTK = target: T4, TTK (Homo sapiens, UniProt P33981); experiment: Kinase profiling TTK; details: 100 micromolar inhibitor concentration, 100 is no change
T4 sequence (P33981 1-857): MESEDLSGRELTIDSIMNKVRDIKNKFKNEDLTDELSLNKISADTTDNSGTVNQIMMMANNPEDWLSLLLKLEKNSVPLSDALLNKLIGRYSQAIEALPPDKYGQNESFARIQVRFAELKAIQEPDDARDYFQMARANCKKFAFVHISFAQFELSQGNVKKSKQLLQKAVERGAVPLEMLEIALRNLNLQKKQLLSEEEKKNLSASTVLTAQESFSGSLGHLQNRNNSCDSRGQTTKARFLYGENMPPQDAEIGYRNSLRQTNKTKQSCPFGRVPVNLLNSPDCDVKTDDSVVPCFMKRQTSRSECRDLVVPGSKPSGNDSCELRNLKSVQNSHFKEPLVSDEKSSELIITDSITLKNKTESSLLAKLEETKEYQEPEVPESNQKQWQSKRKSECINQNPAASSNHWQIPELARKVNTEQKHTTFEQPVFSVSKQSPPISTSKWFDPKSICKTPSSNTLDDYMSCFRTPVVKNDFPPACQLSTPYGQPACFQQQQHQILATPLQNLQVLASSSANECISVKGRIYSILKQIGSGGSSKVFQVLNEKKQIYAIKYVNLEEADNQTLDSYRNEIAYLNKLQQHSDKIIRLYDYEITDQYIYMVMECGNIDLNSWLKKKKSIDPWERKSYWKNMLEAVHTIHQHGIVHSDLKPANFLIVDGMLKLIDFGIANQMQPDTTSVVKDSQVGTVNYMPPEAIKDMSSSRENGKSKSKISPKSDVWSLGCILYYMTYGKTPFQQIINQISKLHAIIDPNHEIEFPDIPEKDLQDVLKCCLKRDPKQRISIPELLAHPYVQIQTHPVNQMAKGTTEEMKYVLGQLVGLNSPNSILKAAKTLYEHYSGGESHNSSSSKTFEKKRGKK
Excerpt: as §1

JAK2 = JAK2 (Homo sapiens, UniProt O60674); experiment: Kinase profiling JAK2; details: 100 micromolar inhibitor concentration, 100 is no change
Excerpt: as §1

IGF-1R = IGF-1R (Homo sapiens, UniProt P08069); experiment: Kinase profiling IGF-1R; details: 100 micromolar inhibitor concentration, 100 is no change
Excerpt: as §1

Sequence of PKBb (P31751 whole entry): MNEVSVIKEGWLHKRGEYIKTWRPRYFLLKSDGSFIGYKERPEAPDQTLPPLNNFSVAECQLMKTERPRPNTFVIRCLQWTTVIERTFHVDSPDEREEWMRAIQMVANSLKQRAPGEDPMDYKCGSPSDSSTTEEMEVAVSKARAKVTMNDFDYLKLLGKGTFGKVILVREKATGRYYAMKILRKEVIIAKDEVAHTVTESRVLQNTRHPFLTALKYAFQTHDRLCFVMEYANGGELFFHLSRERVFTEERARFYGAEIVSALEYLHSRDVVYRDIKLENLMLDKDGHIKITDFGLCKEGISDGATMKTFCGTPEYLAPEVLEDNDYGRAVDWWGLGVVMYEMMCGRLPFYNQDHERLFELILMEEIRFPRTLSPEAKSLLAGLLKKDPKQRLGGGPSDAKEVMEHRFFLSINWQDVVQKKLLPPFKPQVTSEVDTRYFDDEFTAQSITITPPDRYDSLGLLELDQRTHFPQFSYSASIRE
Sequence of JNK3 (P53779 whole entry, species assumed): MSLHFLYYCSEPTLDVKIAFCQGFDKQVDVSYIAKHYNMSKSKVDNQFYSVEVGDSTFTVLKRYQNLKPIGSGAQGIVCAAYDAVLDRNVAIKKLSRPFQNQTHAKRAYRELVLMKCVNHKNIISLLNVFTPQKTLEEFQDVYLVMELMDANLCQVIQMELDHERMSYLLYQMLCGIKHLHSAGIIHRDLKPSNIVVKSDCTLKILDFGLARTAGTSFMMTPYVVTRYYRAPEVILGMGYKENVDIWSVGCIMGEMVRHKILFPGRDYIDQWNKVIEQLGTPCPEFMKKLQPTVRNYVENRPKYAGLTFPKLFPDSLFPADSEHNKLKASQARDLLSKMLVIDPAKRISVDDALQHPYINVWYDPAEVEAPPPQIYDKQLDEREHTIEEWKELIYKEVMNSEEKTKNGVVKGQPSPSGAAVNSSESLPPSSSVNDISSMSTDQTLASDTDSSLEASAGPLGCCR
Sequence of SmMLCK (Q15746 923-1914): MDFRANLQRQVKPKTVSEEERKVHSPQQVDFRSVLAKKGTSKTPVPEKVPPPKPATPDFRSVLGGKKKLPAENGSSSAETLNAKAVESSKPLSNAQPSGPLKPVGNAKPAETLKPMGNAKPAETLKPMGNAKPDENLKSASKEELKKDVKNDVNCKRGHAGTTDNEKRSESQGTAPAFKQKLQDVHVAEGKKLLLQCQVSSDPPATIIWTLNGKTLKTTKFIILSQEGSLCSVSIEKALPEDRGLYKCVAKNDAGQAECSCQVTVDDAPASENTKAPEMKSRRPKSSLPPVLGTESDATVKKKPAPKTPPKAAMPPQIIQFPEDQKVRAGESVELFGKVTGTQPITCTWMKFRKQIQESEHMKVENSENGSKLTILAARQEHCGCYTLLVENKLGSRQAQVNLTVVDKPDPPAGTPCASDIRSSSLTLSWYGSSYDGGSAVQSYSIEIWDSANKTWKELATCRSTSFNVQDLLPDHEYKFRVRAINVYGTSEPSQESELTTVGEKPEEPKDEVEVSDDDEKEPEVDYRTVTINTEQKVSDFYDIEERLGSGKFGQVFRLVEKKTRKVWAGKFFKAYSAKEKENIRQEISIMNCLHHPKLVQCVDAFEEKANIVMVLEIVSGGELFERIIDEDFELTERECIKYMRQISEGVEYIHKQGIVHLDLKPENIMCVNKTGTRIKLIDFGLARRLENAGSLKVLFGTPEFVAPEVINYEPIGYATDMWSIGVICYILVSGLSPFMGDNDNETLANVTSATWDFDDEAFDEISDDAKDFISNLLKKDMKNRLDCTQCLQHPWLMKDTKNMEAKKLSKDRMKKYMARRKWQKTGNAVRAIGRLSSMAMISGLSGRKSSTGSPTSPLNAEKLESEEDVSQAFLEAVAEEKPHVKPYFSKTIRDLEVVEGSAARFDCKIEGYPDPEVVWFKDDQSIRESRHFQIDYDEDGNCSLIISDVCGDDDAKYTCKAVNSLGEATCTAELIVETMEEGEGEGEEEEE
Sequence of IGF-1R (P08069 31-1367, species assumed): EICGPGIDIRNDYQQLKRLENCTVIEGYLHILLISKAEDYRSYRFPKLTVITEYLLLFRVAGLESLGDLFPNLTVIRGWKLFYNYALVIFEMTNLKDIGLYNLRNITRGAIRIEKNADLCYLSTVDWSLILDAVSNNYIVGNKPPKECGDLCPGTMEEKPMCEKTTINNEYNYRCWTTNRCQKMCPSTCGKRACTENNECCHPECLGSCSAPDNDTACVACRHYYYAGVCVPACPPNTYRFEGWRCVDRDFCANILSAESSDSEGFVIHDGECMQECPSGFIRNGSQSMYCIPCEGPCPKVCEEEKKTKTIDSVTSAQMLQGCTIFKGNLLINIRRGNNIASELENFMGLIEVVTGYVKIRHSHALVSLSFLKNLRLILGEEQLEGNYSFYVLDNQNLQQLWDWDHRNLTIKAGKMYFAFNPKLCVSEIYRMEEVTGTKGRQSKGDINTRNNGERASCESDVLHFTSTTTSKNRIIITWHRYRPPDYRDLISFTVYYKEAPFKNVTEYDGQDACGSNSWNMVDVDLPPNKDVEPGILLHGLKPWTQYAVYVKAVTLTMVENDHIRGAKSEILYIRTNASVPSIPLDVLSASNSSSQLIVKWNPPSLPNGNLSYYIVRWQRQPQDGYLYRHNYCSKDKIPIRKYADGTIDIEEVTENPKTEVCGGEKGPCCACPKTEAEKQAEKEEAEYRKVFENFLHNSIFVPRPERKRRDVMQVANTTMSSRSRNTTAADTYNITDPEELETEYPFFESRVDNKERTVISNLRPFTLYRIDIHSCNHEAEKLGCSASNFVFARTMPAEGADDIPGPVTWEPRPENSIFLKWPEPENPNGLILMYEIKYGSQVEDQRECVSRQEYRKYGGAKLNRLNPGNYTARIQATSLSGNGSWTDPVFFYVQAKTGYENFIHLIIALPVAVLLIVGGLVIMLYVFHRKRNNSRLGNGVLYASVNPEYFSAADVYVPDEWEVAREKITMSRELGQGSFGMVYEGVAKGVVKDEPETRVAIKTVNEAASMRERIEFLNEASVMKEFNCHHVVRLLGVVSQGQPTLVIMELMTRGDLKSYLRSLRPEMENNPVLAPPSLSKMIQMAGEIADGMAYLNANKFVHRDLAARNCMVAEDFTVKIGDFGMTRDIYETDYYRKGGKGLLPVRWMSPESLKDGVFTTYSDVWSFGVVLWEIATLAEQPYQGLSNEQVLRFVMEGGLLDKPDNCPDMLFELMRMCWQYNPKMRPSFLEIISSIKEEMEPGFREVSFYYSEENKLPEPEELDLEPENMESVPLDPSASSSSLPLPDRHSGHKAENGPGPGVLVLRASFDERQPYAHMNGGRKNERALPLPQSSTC
Sequence of RSK2 (P51812 whole entry, species assumed): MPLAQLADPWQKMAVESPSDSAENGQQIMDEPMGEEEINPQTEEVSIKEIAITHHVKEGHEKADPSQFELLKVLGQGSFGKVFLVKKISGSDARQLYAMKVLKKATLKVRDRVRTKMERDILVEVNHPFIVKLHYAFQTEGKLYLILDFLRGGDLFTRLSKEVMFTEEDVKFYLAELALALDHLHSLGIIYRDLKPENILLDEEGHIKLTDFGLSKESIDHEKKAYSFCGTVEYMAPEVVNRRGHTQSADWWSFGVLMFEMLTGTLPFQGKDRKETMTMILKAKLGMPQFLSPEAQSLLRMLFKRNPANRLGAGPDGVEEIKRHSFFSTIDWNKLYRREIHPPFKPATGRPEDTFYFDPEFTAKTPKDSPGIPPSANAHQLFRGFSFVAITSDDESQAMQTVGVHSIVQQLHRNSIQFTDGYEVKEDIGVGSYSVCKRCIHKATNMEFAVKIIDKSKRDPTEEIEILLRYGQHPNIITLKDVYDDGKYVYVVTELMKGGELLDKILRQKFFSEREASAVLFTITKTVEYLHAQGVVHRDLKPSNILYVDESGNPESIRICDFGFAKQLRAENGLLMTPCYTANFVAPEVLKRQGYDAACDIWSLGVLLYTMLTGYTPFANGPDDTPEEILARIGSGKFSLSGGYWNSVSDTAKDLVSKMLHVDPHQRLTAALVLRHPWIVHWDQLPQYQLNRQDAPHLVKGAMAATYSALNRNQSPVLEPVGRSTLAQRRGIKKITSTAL
Sequence of RIPK2 (O43353 whole entry, species assumed): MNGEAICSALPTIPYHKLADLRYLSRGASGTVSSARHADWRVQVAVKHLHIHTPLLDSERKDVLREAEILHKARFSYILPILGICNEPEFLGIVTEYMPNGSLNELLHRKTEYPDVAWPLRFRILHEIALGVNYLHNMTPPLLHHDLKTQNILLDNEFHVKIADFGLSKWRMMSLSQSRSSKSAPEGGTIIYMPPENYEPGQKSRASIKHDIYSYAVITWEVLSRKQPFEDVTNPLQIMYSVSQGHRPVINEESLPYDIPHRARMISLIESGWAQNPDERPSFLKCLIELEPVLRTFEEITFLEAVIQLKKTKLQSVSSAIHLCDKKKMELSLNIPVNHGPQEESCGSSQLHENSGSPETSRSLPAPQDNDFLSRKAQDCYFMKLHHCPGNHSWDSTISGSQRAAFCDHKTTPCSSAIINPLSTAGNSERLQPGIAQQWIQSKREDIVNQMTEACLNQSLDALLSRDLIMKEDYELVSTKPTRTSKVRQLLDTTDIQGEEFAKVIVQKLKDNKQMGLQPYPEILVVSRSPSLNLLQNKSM
Sequence of p38a MAPK (Q16539 whole entry): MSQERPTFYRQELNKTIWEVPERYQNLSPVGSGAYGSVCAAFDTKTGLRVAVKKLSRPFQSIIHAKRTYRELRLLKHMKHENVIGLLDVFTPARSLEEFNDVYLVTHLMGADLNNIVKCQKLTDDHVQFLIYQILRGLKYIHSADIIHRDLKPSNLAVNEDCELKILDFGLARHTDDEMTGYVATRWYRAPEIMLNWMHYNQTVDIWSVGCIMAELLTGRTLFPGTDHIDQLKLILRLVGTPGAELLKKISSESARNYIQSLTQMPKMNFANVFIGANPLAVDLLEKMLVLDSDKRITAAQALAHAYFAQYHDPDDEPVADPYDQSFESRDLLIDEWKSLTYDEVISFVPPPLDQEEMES

SMILES | residual kinase activity, MKK1 (MKK1) | residual kinase activity, JNK1 (JNK1) | residual kinase activity, JNK3 (JNK3) | residual kinase activity, p38a MAPK (p38a MAPK) | residual kinase activity, p38d MAPK (p38d MAPK) | residual kinase activity, RSK2 (RSK2) | residual kinase activity, PKBb (PKBb) | residual kinase activity, SGK1 (SGK1) | residual kinase activity, STK33 (STK33) | residual kinase activity, SmMLCK (SmMLCK) | residual kinase activity, MST2 (MST2) | residual kinase activity, RIPK2 (RIPK2) | residual kinase activity, TTK (TTK) | residual kinase activity, JAK2 (JAK2) | residual kinase activity, IGF-1R (IGF-1R) | also measured
CC(=O)Nc1nc2cc(F)ccc2s1 [Compound 03-77] | – | – | – | – | – | – | – | – | – | – | – | – | – | – | – | remaining activity at 100 µM (MKK1; read-out: residual kinase activity, MKK1): 87%; remaining activity at 100 µM (JNK1; read-out: residual kinase activity, JNK1): 80%; remaining activity at 100 µM (JNK3; read-out: residual kinase activity, JNK3): 68%; remaining activity at 100 µM (p38a MAPK; read-out: residual kinase activity, p38a MAPK): 88%; remaining activity at 100 µM (p38d MAPK; read-out: residual kinase activity, p38d MAPK): 76%; remaining activity at 100 µM (RSK2; read-out: residual kinase activity, RSK2): 83%; remaining activity at 100 µM (PKBb; read-out: residual kinase activity, PKBb): 93%; remaining activity at 100 µM (SGK1; read-out: residual kinase activity, SGK1): 66%; remaining activity at 100 µM (STK33; read-out: residual kinase activity, STK33): 70%; remaining activity at 100 µM (SmMLCK; read-out: residual kinase activity, SmMLCK): 66%; remaining activity at 100 µM (MST2; read-out: residual kinase activity, MST2): 80%; remaining activity at 100 µM (RIPK2; read-out: residual kinase activity, RIPK2): 64%; remaining activity at 100 µM (TTK; read-out: residual kinase activity, TTK): 64%; remaining activity at 100 µM (JAK2; read-out: residual kinase activity, JAK2): 57%; remaining activity at 100 µM (IGF-1R; read-out: residual kinase activity, IGF-1R): 58%
O=C(Nc1nc2ccc(O)cc2s1)c1ccncc1 [Compound 08-42] | 87 | 99 | 65 | 99 | 65 | 62 | 52 | 60 | 67 | 33 | 55 | 30 | 32 | 50 | 88 | –
O=C(Nc1nc2ccc(O)cc2s1)c1cccnc1 [Compound 08-44] | 67 | 102 | 64 | 108 | 62 | 56 | 45 | 51 | 57 | 19 | 57 | 21 | 22 | 30 | 54 | –

Source: US10231954B2, “Neurodegenerative therapies” (LYTIX BIOPHARMA AS, priority 2014, dated 2019)
